The values below come from PMC12037426, “Lipid Metabolism-Related Enzyme Inhibition and Antioxidant Potential of the Extracts and Phytochemical Compounds from Trachystemon orientalis (L.) D.Don” (Plant Foods for Human Nutrition (Dordrecht, Netherlands), 2025).

Details of series [1]: method as in PMID 28122265. The following applies: cited from earlier work.
Another series concerns PL. The following applies: cited from earlier work.
Series [2] concerns RAW264.7 macrophage cells. Also on record: method as in PMID 27514857. The following applies: cited from earlier work.
In series [3] the test system is hypercholesterolemic rats. On the set-up: method as in PMID 39615784. The settings on record: 100 mg/kg, hypercholesterolemic rats on a high-fat diet; cited from earlier work.
The target of a further series is T1, Pancreatic lipase (PL) (Homo sapiens, UniProt P16233).
T1 sequence (P16233 17-465): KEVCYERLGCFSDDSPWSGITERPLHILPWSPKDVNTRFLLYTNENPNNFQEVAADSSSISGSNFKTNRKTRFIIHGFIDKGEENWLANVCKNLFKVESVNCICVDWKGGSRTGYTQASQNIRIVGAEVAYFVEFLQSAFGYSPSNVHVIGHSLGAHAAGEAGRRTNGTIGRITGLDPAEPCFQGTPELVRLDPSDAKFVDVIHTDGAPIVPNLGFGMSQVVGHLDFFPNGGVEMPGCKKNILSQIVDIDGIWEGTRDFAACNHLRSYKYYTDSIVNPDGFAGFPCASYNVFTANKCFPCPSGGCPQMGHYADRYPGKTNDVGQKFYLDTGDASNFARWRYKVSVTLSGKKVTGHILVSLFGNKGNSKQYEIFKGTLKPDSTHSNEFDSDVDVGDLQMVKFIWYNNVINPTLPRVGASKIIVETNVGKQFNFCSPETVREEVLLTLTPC
As to the kind of experiment: Pancreatic lipase (PL) inhibition, p-nitrophenyl butyrate substrate. Type of series: biochemical. The settings on record: for IC50: mean ± SD of triplicate, read-out: Enzyme inhibitory activities IC50 ± SD, Pancreatic lipase (PL) (converted). On the procedure: PL inhibition was assessed utilizing p-nitrophenyl butyrate as a substrate. The extracts were diluted using a buffer solution (0.1 M Tris-HCl, pH 8.0) to achieve a final concentration range of 12.5-400 µg/mL. […] An enzyme solution (EC 3.1.1.3, 200 units/mL) and a substrate solution (10 mM) were formulated in a buffer solution.
The experimental procedure was structured in microplate wells A (90 µL enzyme solution, 5 µL substrate solution, 5 µL buffer solution), B (90 µL enzyme solution, 10 µL buffer solution), C (90 µL enzyme solution, 5 µL sample solution, 5 µL substrate solution), and D (90 µL enzyme solution, 5 µL sample solution, 5 µL buffer solution). Microplates were incubated at 37 °C for 15 minutes before to and following the addition of substrates. The absorbance values were measured at 405 nm, and the percentage of pancreatic lipase enzyme inhibition was calculated. All concentrations were conducted in triplicate.
% Pancreatic lipase inhibition = [(A-B)-(C-D)/(A-B)] × 100
The IC50 values of the samples on lipase were derived using the graph equation established by plotting the observed percentage of enzyme inhibition against the logarithm of the concentrations (ordinate and abscissa).

A short description of series [4]: Cupric-reducing antioxidant capacity (CUPRAC) assay. The protocol:
CUPRAC assay was performed according to the modified protocol. Methanolic solutions of Trolox, utilized as a reference, were produced at varying concentrations (1000-62.5 μM). Subsequently, 1 mL of NH4CH3COO and 1 mL of CuCl2.2H2O and 1 of mL neocuproine (Nc) solutions were combined, followed by the addition of 0.5 mL of the sample solution (10 mg/mL) and 0.6 mL of distilled water (1.1-x) water into the mixture. Following the mixing of the tubes and incubation in darkness at ambient temperature for 30 minutes, the absorbance of the samples was measured at 450 nm. The antioxidant capacity of the samples was quantified as TEAC (μM) by comparison with Trolox, the reference chemical.

Series [5] in a line: Ferric reducing antioxidant power (FRAP) assay. The protocol:
The Fe(II)-TPTZ complex, generated by the reduction of the TPTZ complex in the presence of antioxidants, has a blue colour and is measured at 595 nm. […] Absorbance measurements were recorded at 595 nm after 20 minutes at room temperature. […] FRAP values were reported as μM Trolox equivalents per gram of material.

A further series concerns 3T3-L1 adipocytes. The settings on record: cited from earlier work.
Series [6] deals with hypercholesterolemic hamsters. The following applies: cited from earlier work.

Each structure is given as a SMILES string. Read-outs that look alike come from different tables or passages of the source.

With `O=C(O)C(O)Cc1ccc(O)c(O)c1` (stereo not shown) [Danshensu, 3,4-dihydroxyphenyl lactic acid], in [1], the radical scavenging ability result was “equivalent to that of quercetin”. Moreover, the “PL IC50” value with PL was 65.160 ± 4.443 mg/L. The lipid accumulation entry in [2] was “reduce lipid accumulation”.

Usually IC50 stands for the concentration that gives 50% inhibition. Take `O=C(/C=C/c1ccc(O)c(O)c1)O[C@H](Cc1ccc(O)c(O)c1)C(=O)O` [Rosmarinic acid]: the radical scavenging ability result in series [1] is “equivalent to that of quercetin”. Also, in series [3], the “cholesterol and triglyceride levels” value was “improve cholesterol and triglyceride levels comparably to simvastatin”. The IC50 on Pancreatic lipase (PL) was 134 µM. Further, the CUPRAC in [4] was found to be 1801.389 ± 5.500 µM TEAC. For the same molecule, the “CUPRAC (copper reducing antioxidant power)” value in series [4] (sample 10 mg/mL) is recorded as 1801.389 ± 5.500 µM Trolox equivalent/gram. In series [5], this molecule yielded an FRAP of 1274.400 ± 1.633 µM TEAC. Moreover, the “FRAP (iron reducing antioxidant power)” value in series [5] (sample 10 mg/mL) was 1274.400 ± 1.633 µM Trolox equivalent/gram. In the series with PL, the “PL inhibitory activity IC50” value is 125.2 mg/L and the “lipase inhibitory activity IC50” value is 49.421 ± 1.448 mg/L. The IC50 with PL (read-out: lipase inhibitory activity IC50) was 62.8 ± 2.7 µM.

What is called inhibition is the change of the read-out against control, counted positive when it falls. As for `CC[C@H](CC[C@@H](C)[C@H]1CC[C@H]2[C@@H]3CC=C4C[C@@H](O)CC[C@]4(C)[C@H]3CC[C@]12C)C(C)C` [β-sitosterol], the IC50 on Pancreatic lipase (PL) is 101 µM. Further, on Pancreatic lipase (PL) (read-out: PL inhibition), the inhibition at 100 µg/mL was determined as 68.5%. Also, the PL inhibition with PL (100 µg/mL) is listed as 79.1 ± 11.3%; with PL (4 mg/mL) it was 60.67% ± 0.53; with PL (first value of two), 2.99 ± 0.80%; with PL (second value of two), 8.80 ± 4.15%. In addition, the “adipogenesis (intracellular triglyceride content and lipid accumulation)” value in the series with 3T3-L1 adipocytes is listed as “efficiently prevented adipogenesis”. Also, in the series with 3T3-L1 adipocytes, the cytotoxicity entry is on record as “without including notable cytotoxicity”. Also, the “cholesterol absorption and plasma cholesterol levels” value in [6] is “decrease cholesterol absorption and plasma cholesterol levels”.
